Literature values as cited in paper PMC9088800, “Expanded LUXendin Color Palette for GLP1R Detection and Visualization In Vitro and In Vivo” (JACS Au, 2022).

Conditions: phase III trials, combined with lifestyle interventions
Text: The glucagon-like peptide-1 receptor (GLP1R) is a class B G protein-coupled receptor involved in the regulation of glucose homeostasis, food intake, and inflammation.[1],[2] As such, GLP1R agonist (GLP1RA) therapy has become a mainstay of type-2 diabetes treatment during the past decade, with a number of drugs on the market based upon stabilized analogues of glucagon-like peptide-1.[3] Most recently, phase III trials of the third-generation semaglutide have shown a ∼15% reduction in body weight when combined with lifestyle interventions,[4] leading to the approval of GLP1RAs as the first nonsu ...

Substance: semaglutide
- Reduction in body weight: ~15%
